Measured values reported in patent EP1510220B1 (priority 1993, dated 1994).

What was measured:
[1] = system: human ED cultures; experiment: Proliferation of enzyme-dispersed (ED) human VSMC cultures; format: cell-based; details: 96 h, cell counting
Procedure: (§1) Human aortic VSMC cultures. Adult human VSMC were obtained from 6 transplant donors (either sex, age range from 3 to 54 years) using the enzyme dispersal or explant technique. In one case, the same donor (a person) was used to establish both an enzyme-dispersed (ED) and explant-derived (EX) cell culture. Prior to enzyme-dispersion or explanting treatment, human aortas were obtained within 18 h of death. The endothelium layer was removed with a scalpel blade and strips of smooth muscle cells (tunica media) were removed with forceps and chopped into small pieces (1 mm^3).
(§2) ED Cultures. The aortic pieces were washed once with serum-free Hanks Balanced Salt Solution, then enzyme-dispersed with collagenase and elastase, as described in Example 7. The cells were plated at an initial density of 1.5 x 10^5 cells/cm^2 and incubated in a humidified atmosphere at 37°C in 5% CO2 in air. The cells were subcultured every 6-7 days (at stationary phase) by releasing them with trypsin/EDTA and diluting them 1:1.5 in D-MEM + 10% FCS. Subcultured ED cells were cultured with D-MEM + 20% FCS 24 h after plating, and thereafter at 48 h intervals.
(§3) Cell counting, DNA synthesis assays and assays for total and active TGF-beta were performed as described in Example 7.

[2] = as above; format: cell-based; details: human, aortic vsmc ed cultures, cell counting, read-out: concentrations that caused cell death
Procedure: as §1, §2, §3

[3] = system: TGF-beta1 mRNA; details: vascular smooth muscle cells, 24 h, 10 µM
[4] = system: Rat adventitial fibroblasts; experiment: Proliferation of adventitial fibroblasts; format: cell-based
Procedure: Rat adventitial fibroblasts were cultured as described in Grainger et al., Biochem. J., 283: 403-408, 1992. Briefly, the aortae were treated with collagenase (3 mg/ml) for 30 minutes at 37°C. The tunica adventitia was stripped away from the media. The adventitia was dispersed for 2 hours in elastase (1 mg/ml) and collagenase (3 mg/ml) dissolved in medium M199 (available from ICN/Flow). The cells were then spun out (900 x g, 3 minutes), resuspended in DMEM + 10% FCS and plated out at 8 x 10^4 cells/cm^2 on tissue culture plastic. When the cells reached confluence (after about 10 days), they were subcultured as described for vascular smooth muscle cells. Adventitial fibroblasts were subcultured every 3 days at 1:3 dilution and used between passages 3 and 9.
Cells were prepared for counting by hemocytometer from triplicate culture dishes as described in Grainger et al., Biochem. J., 277:145-151, 1991. Cells were also counted by direct microscopic observation of gridded culture dishes. The grids were scored into the plastic on the inner surface, so that the cells could not migrate into or out of the area being counted during the experiment. Cells in each of four squares in two separate wells were counted at each time point. All cell counting experiments were repeated on at least three separate cultures.

[5] = system: TGF-beta1 mRNA; experiment: cells; details: Rattus norvegicus, 24 h, read-out: increase of TGF-beta1 mRNA
[6] = Proliferation of explant-derived (EX) human VSMC cultures; format: cell-based; details: human, aortic vsmc ex cultures
Procedure: as §1
EX Cultures. The aortic pieces were washed once with D-MEM + 10% FCS, resuspended in a small volume of fresh D-MEM + 10% FCS, and transferred to culture flasks or Petri dishes. The pieces were allowed to sediment onto the plastic and were evenly distributed (≈ 4 pieces/cm^2). Cells started to grow out from the explants after 3-7 d in culture. The aortic pieces were removed during the third week in culture, and the cells adhering to the plastic were allowed to grow to confluence for a further week. The cells were then subcultured every 4-5 days by releasing them with trypsin/EDTA and diluting them 1:2 in D-MEM + 10% FCS. Subcultured cells were incubated with fresh D-MEM + 20% FCS as described for ED cultures.
as §3

[7] = system: Vascular smooth muscle cells (BO54); experiment: Scratch-migration assay with morphological toxicity grading; format: cell-based, baboon; design: key: - = no migration; +1 = minimal; +2 = mild; +3 = moderate; +4 = marked (maximum density; limit of cell contact inhibition) migration
Procedure: Scratch assays to determine the extent of smooth muscle cell migration inhibition by cytochalasin B were performed in accordance with the following protocol:
Vascular smooth muscle cells (BO54) were derived from explants of baboon aortic smooth muscle, as described in Example 1. The cells were grown in flat bottom, six well tissue culture plates, which hold about 5 ml of medium. The vascular smooth muscle cells were plated at 200,000 cells/well and placed at 37°C in a humidified 5% CO2 incubator for 18 hours. The wells were then scratched with a sterile portion of a single edge razor blade that was held by clamp or pliers and was brought aseptically into contact with the bottom of the well at a 90° angle. The cells from a small area along the scratch were removed by a sterile cotton tipped applicator while the blade was in contact with the bottom of the well. After incubation, the presence of cells in the "scratched" area is indicative of cell migration across the scratch line.
Briefly, a stock solution of cytochalasin B (Sigma Chemical Co.) in dimethyl sulfoxide (DMSO) at 1 mg/ml was prepared. Test dilutions of cytochalasin B or control medium were added. Each experiment included two sets of plates: • A set: Test agent exposure for 1, 3, 6, 8 and 10 days only; and • B set: Test agent exposure for 1, 3, 6, 8 and 10 days, followed by a seven day recovery time with control medium. Both sets of plates were fixed (10% formalin in PBS) and stained (0.02% crystal violet) at the end of the timed exposures. Test concentrations for cytochalasin B were 1, 0.1 and 0.01 µg/ml, and a negative medium control was included. Fresh medium and drug were supplied 3 times per week.
In this Table, "M" indicates Migration Grade, wherein - = no migration; +1 = minimal; +2 = mild; +3 = moderate; and +4 = marked (maximum density; limit of cell contact inhibition) migration of vascular smooth muscle cells into the cleared area adjacent to the scratch. In this Table, "T" denotes a morphological Toxicity Grade, wherein - = no toxicity; +1 = minimal; +2 = mild; +3 = moderate; and +4 = marked toxicity. The migration results are expressed as "Grade in the Cleared Area of the Well / Grade in an Undisturbed Region of the Well." The toxicity values represent a grade for all cells in each well.

[8] = system: vascular smooth muscle cells; format: in vivo, pig; details: 4 days post-trauma

Molecule	concentrations that did not affect the rate of proliferation [1]	MCC at 96 h [2]	increase of TGF-beta1 mRNA [3]	rate of proliferation of subcultured adventitial fibroblasts ([4]; concentrations of up to 50 micromolar)	ED50 lower for vascular smooth muscle cells than for adventitial fibroblasts ([4]; selectivity, vascular smooth muscle cells vs adventitial fibroblasts)	fold induction at 10 µM [5]	MCC [6]	morphological Toxicity Grade ([7]; 7-day Recovery Post Exposure, 1.0 µg/mL, Day 1)	morphological Toxicity Grade ([7]; 7-day Recovery Post Exposure, 1.0 µg/mL, Day 3)	morphological Toxicity Grade ([7]; 7-day Recovery Post Exposure, 1.0 µg/mL, Day 6)	morphological Toxicity Grade ([7]; 7-day Recovery Post Exposure, 1.0 µg/mL, Day 8)	morphological Toxicity Grade ([7]; 7-day Recovery Post Exposure, 1.0 µg/mL, Day 10)	morphological Toxicity Grade ([7]; Continuous Exposure, 0.1 µg/mL, Day 3)	morphological Toxicity Grade ([7]; Continuous Exposure, 0.1 µg/mL, Day 6)	morphological Toxicity Grade ([7]; Continuous Exposure, 0.1 µg/mL, Day 8)	morphological Toxicity Grade ([7]; Continuous Exposure, 0.1 µg/mL, Day 10)	morphological Toxicity Grade ([7]; Continuous Exposure, 1.0 µg/mL, Day 1)	morphological Toxicity Grade ([7]; Continuous Exposure, 1.0 µg/mL, Day 3)	BRDU labeling grade [8]
CC/C(=C(\c1ccccc1)c1ccc(OCCN(C)C)cc1)c1ccccc1 [tamoxifen, trans-2-[4-(1,2-diphenyl-1-butenyl)phenoxy]-N,N-dimethylethylamine]	below 10 µM	> 33 µM	approximately 10 fold	did not reduce the rate of proliferation	at least 10 fold	~10	> 33 µM												
cytochalasin B								+2	+1	+3	+3	+3	+1	+1	+1	+1	+3	+3	4 (4 = > 10/HPF)
